The text below walks through data of patent US8648076B2, “Cysteine protease inhibitors and their therapeutic applications” (Hybrigenics SA, priority 2005, dated 2014).

What is called GI50 is the concentration at which growth is held to half of that of the control.

Structures are written as SMILES. Read-outs that look alike come from different tables or passages of the source.

One assay deals with T1, USP8 (Homo sapiens, UniProt P40818).
T1 sequence (P40818 1-1118): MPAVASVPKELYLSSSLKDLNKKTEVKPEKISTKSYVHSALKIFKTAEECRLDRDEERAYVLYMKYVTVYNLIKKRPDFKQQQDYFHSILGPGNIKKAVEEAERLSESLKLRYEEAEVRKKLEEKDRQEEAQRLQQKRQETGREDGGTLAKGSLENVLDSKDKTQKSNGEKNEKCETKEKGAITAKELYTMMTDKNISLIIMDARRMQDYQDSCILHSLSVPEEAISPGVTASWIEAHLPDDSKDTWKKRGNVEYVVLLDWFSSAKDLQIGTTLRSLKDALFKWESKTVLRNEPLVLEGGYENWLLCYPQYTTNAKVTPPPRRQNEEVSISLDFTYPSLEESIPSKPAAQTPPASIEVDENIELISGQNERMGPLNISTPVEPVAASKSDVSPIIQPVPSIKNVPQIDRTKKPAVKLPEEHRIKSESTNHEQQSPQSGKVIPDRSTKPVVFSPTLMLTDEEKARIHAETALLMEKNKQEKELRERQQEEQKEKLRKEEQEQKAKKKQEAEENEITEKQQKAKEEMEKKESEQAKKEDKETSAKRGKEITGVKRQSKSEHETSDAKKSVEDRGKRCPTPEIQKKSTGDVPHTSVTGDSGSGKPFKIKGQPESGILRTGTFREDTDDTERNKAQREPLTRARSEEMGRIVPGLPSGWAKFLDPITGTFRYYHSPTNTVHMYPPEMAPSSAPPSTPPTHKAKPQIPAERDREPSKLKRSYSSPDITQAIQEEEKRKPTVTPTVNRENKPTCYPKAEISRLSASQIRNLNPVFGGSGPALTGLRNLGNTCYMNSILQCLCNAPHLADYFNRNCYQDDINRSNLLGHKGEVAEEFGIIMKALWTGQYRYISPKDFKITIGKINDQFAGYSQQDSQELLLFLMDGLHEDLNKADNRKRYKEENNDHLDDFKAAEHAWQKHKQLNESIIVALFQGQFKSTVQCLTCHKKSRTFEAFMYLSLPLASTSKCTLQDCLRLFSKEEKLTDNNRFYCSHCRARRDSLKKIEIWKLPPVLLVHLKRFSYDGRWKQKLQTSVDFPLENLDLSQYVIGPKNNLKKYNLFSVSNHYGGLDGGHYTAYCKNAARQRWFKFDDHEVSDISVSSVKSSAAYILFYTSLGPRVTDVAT
The assay is described as follows: USP8 activity assay. The format is biochemical. To be noted: 400 nM Ub-AMC, pH8.8, 30 min pre-incubation at 25° C., 60 min at 37° C.; sigmoidal fit; AF: Autofluorescent; read-out: USP 8 (inhibition of cysteine protease activity).

The target of the next assay is Cathepsin B (Homo sapiens, UniProt P07858). The assay is described as follows: Cathepsin B activity assay. The format is biochemical. To be noted: 36 μM z-RR-AMC, 3.6 nM enzyme, 30 min pre-incubation at 25° C., 60 min at 37° C.; sigmoidal fit; AF: Autofluorescent; read-out: cathepB (inhibition of cysteine protease activity). As for the experimental part:
(§1) Cathepsin B was diluted in Cathepsin B buffer (20 mM Tris HCl pH 6.8; 1 mM EDTA; 1 mM DTT). Compounds stocks (100 mM) were stored at −20° C. in DMSO. […] Reactions were performed as duplicates in Black LJL 96 well plates (HE microplates; Molecular Devices; 20 μl final reaction volume). The substrate concentration for cathepsin B specificity assay was 36 μM (z-RR-AMC; Calbiochem). The concentration of the enzyme (Cathepsin B) in specificity assays was 3.6 nM. The concentrations were determined in order to perform specificity assays under initial velocities at fixed substrate concentration. Compounds were pre-incubated with enzymes for 30 minutes at 25° C. Reactions were initiated by addition of substrate to the plates containing the enzymes (+/− compounds) diluted in assay buffer. Reactions were incubated for 60 minutes at 37° C. Reactions were stopped by adding acetic acid (100 mM final). Readings were performed on a Pherastar Fluorescent Reader (BMG). δ Emission 380 nm; 6 Excitation=460 nm. Data (mean values+/− standard deviation) were analyzed as % of control (no compound) and plotted as percentage versus the Log of the compound concentration using GraphPad (Prism). Data were fitted to a sigmoidal model (variable slope).

In another assay the target is T2, Caspase 3 (Homo sapiens, UniProt P42574).
T2 sequence (P42574 29-175 limits assumed): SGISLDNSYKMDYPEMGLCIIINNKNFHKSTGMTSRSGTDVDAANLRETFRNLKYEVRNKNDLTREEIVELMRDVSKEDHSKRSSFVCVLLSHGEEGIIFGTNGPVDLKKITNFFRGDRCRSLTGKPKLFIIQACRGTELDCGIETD
T2 sequence (P42574 176-277 limits assumed): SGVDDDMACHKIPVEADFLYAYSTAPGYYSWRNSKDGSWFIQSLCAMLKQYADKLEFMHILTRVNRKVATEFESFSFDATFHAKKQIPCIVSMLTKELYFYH
The assay is described as follows: Caspase 3 activity assay. It is filed as biochemical. As to conditions: 500 nM Ac-DEVD-AMC, 3.2 nM enzyme, 30 min pre-incubation at 25° C., 60 min at 37° C.; sigmoidal fit; AF: Autofluorescent; read-out: Casp3 (inhibition of cysteine protease activity). As for the experimental part:
as §1, with “Compounds” for “Cathepsin B was diluted in Cathepsin B buffer (20 mM Tris HCl pH 6.8; 1 mM EDTA; 1 mM DTT). Compounds”, “for caspase 3” for “for cathepsin B”, “was 500 nM (Ac-DEVD-AMC; Promega). […]” for “was 36 μM (z-RR-AMC; Calbiochem). The concentration of the enzyme (Cathepsin B) in specificity assays was 3.6 nM.”, “enzymes (+/−compounds)” for “enzymes (+/− compounds)”, “nm; δ” for “nm; 6”

The subject of assay [1] is PC-3 prostate cancer cells. The assay is described as follows: PC3 cell viability and proliferation assay (MTS). To be noted: Homo sapiens, PC-3, 72 h, read-out: PC3 D3 GI50. It is filed as cell-based.
The subject of assay [2] is HCT116 colon cancer cells. Briefly: HCT116 cell viability and proliferation assay (MTS). As to conditions: Homo sapiens, read-out: HCT116 D3 GI50. The format is cell-based.
Setting [3] is: PC3 cells, 72 hours incubation, MTS, mean of 3 independent experiments.
Where [4] appears, read: HCT-116, HCT116 cells, 72 hours incubation, MTS, mean of 3 independent experiments.

On to `COc1ccc2c(c1OC)C(=O)c1nc(C#N)c(C#N)nc1-2` [Example 17d, 7,8-Dimethoxy-9-oxo-9H-indeno[1,2-b]pyrazine-2,3-dicarbonitrile], for which the IC50 was determined as 0.71 µM at USP8, 87 µM on Cathepsin B and 1.8 µM at Caspase 3. Also, the GI50 was 0.91 µM in assay [1] (setting [3]) and 0.68 µM in assay [2] (setting [4]).

Regarding `Cc1ccc2c(c1)-c1nc(C#N)c(C#N)nc1C2=O` [Example 17e, 6-Methyl-9-oxo-9H-indeno[1,2-b]pyrazine-2,3-dicarbonitrile], the IC50 at USP8 was found to be 0.93 µM; at Cathepsin B it was 20 µM; at Caspase 3, 3.3 µM. Also, the GI50 in assay [1] (setting [3]) was found to be 1.32 µM; in assay [2] (setting [4]), 0.3 µM.

On to `COc1ccc(OC)c2c1C(=O)c1nc(C#N)c(C#N)nc1-2` [Example 17f, 5,8-Dimethoxy-9-oxo-9H-indeno[1,2-b]pyrazine-2,3-dicarbonitrile], for which the values for the IC50 on USP8, at Cathepsin B and at Caspase 3 were 0.81 µM, 52.6 µM and 2 µM, respectively. Moreover, the GI50 stood at 0.8 µM in assay [1] (setting [3]) and 0.93 µM in assay [2] (setting [4]).

As for `N#Cc1nc2c(nc1C#N)-c1ccc(Cl)cc1C2=O` [Example 17g, 7-Chloro-9-oxo-9H-indeno[1,2-b]pyrazine-2,3-dicarbonitrile], the values for the IC50 at USP8, at Cathepsin B and at Caspase 3 were 0.096 µM, 1.5 µM and 0.29 µM, respectively. For the same compound, the GI50 in assay [1] (setting [3]) stood at 1.11 µM; in assay [2] (setting [4]), 0.32 µM.

In the case of `N#Cc1nc2c(nc1C#N)-c1ccc(F)cc1C2=O` [Example 17h, 7-Fluoro-9-oxo-9H-indeno[1,2-b]pyrazine-2,3-dicarbonitrile], the IC50 was 0.25 µM at USP8, 6 µM on Cathepsin B and 1 µM on Caspase 3. For the same compound, the GI50 amounted to 0.57 µM in assay [1] (setting [3]) and 0.16 µM in assay [2] (setting [4]).

Take `COc1ccc2c(c1)C(=O)c1nc(C#N)c(C#N)nc1-2` [Example 17i, 7-Methoxy-9-oxo-9H-indeno[1,2-b]pyrazine-2,3-dicarbonitrile]: the IC50 at USP8 was found to be 2.1 µM; at Cathepsin B, 32 µM; at Caspase 3, 2 µM. Moreover, the figures for the GI50 in assay [1] (setting [3]) and in assay [2] (setting [4]) were 1.27 µM and 0.56 µM, respectively.

`N#Cc1nc2c(nc1C#N)-c1ccc(O)cc1C2=O` [Example 17j, 7-Hydroxy-9-oxo-9H-indeno[1,2-b]pyrazine-2,3-dicarbonitrile]: the results for the IC50 on USP8, at Cathepsin B and at Caspase 3 were above 100 µM, 40 µM and 47 µM, respectively. The GI50 in assay [1] (setting [3]) and in assay [2] (setting [4]) was above 10 µM throughout.

As for `N#Cc1nc2sc3ccccc3c2nc1C#N` [Example 19, benzo[4,5]thieno[2,3-b]pyrazine-2,3-dicarbonitrile], the IC50 at USP8, on Cathepsin B and on Caspase 3 was above 100 µM in each case. The values for the GI50 in assay [1] (setting [3]) and in assay [2] (setting [4]) were 4.2 µM and 10 µM, respectively.

As to `N#Cc1nc2c(nc1C#N)C(=O)c1ccccc1C2=O` [Example 20, 5,10-dioxo-5,10-dihydro-benzo[g]quinoxaline-2,3-dicarbonitrile], the IC50 at USP8, on Cathepsin B and on Caspase 3 was above 100 µM in each case. Also, the GI50 was 1.26 µM in assay [1] and 0.78 µM in assay [2] (HCT-116, 72 h).

In the case of `N#CNc1nc2c(nc1C#N)C(=O)c1ccccc1-2` [Example 21, 2-cyano-9-oxo-9H-indeno[1,2-b]pyrazin-3-yl-cyanamide], the IC50 at USP8, at Cathepsin B and at Caspase 3 was above 100 µM throughout. Besides, the GI50 in assay [1] (setting [3]) and in assay [2] (setting [4]) was above 10 µM throughout.

Turning to `CCSc1nc2c(nc1C#N)C(=O)c1ccccc1-2` [Example 23, 3-ethylsulfanyl-9-oxo-9H-indeno[1,2-b]pyrazine-2-carbonitrile], the IC50 on USP8 was 46 µM; on Cathepsin B it was above 100 µM; at Caspase 3 it was above 100 µM. Besides, the GI50 in assay [1] (setting [3]) and in assay [2] (setting [4]) was above 10 µM each time.
